We go through 3 compounds from US20250019385A1, “SPIROCYCLIC ANNULATED 2-AMINO-3-CYANO THIOPHENES AND DERIVATIVES FOR THE TREATMENT OF CANCER” (Boehringer Ingelheim International GmbH, priority 2023, published 2025).

In brackets after ≈: the same amount, converted by molar mass.

KRAS (G12D)::SOS1 protein-protein interaction, sequence (P01116 other isoform, or with tags, fused parts or gaps G12D): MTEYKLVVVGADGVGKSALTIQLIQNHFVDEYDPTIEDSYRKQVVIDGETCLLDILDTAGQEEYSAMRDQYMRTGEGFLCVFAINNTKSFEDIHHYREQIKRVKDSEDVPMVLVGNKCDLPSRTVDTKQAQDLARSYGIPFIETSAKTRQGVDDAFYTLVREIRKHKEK

Test system in one data set: not listed separately
In words: Plasma protein binding assay (PPB), equilibrium dialysis. The data set is classed as in vitro ADME. The following applies: bovine, 10% FCS in PBS, read-out: PPB 10% FCS (% fu). As to the method: Binding of test compounds to plasma was determined using equilibrium dialysis (ED) and quantitative mass spectrometry interfaced with liquid chromatography (LC-MS). In brief, ED was performed with dialysis devices consisting of two chambers separated by a semipermeable membrane with a molecular weight cut-off of 5-10 kg/mol. One chamber was filled with 10% FCS in PBS containing 1-10 μmol/L test compound and the other chamber was filled with phosphate-buffer saline (PBS) with or without dextran. The dialysis chamber was incubated for 3-5 hours at 37° C. After incubation, protein was precipitated from aliquots of each chamber and the concentration of test compound in the supernatant of the plasma-containing compartment (cserum) and of the buffer-containing compartment (cbuffer) was determined by LC-MS. The fraction of unbound test compound (not bound to plasma) (f) was calculated according to the following equation: […]
Take `C[C@H](Oc1nc(-c2onc3c2CCC[C@@]32CCCc3sc(N)c(C#N)c32)nc2c1n(C)c(=O)n2[C@@]12COC[C@@H]1C2)[C@@H]1CCCN1C` [I-29]: the fraction unbound stood at 0.39.

For `C[C@H](Oc1nc(-c2onc3c2CCC[C@@]32CCCc3sc(N)c(C#N)c32)nc2c1N(C)C(=O)CN2[C@@H]1CCOC1)[C@@H]1CCCN1C` [I-37], the fraction unbound is 0.13.

`CO[C@@H]1C[C@@H]([C@H](C)Oc2nc(-c3onc4c3CCC[C@@]43CCCc4sc(N)c(C#N)c43)nc3c2n(C)c(=O)n3[C@@H]2CCCOC2)N(C)C1` [I-14]: the fraction unbound was found to be 0.15.

Test system in a further data set: not listed separately
The experiment in a line: Solubility measurement (DMSO solution precipitation method). It is filed as physicochemical. Particulars: aqueous buffer, kinetic from dmso stock, McIlvaine buffer pH 4.5, 24 h, read-out: solubility pH 4.5. As to the method:
A 10 mM DMSO stock solution of a test compound is used to determine its aq. solubility. The DMSO solution is diluted with an aq. medium (McIlvaine buffer with pH=4.5 or 6.8) to a final concentration of 250 μM. After 24 h of shaking at ambient temperature a potentially formed precipitate is removed by filtration. The concentration of the test compound in the filtrate is determined by LC-UV methods by calibrating the signal to the signal of a reference solution with complete dissolution of the test compound in acetonitrile/water (1:1) with known concentration.
Turning to `C[C@H](Oc1nc(-c2onc3c2CCC[C@@]32CCCc3sc(N)c(C#N)c32)nc2c1n(C)c(=O)n2[C@@]12COC[C@@H]1C2)[C@@H]1CCCN1C` [I-29], the solubility at 24 h is over 161 µg/mL.

As for `C[C@H](Oc1nc(-c2onc3c2CCC[C@@]32CCCc3sc(N)c(C#N)c32)nc2c1N(C)C(=O)CN2[C@@H]1CCOC1)[C@@H]1CCCN1C` [I-37], the solubility at 24 h is over 151 µg/mL.

As for `CO[C@@H]1C[C@@H]([C@H](C)Oc2nc(-c3onc4c3CCC[C@@]43CCCc4sc(N)c(C#N)c43)nc3c2n(C)c(=O)n3[C@@H]2CCCOC2)N(C)C1` [I-14], the solubility at 24 h was over 163 µg/mL.

The same data set, now with this note: aqueous buffer, kinetic from dmso stock, McIlvaine buffer pH 6.8, 24 h, read-out: solubility pH 6.8.
Take `C[C@H](Oc1nc(-c2onc3c2CCC[C@@]32CCCc3sc(N)c(C#N)c32)nc2c1n(C)c(=O)n2[C@@]12COC[C@@H]1C2)[C@@H]1CCCN1C` [I-29]: the solubility at 24 h is over 165 µg/mL.

Turning to `C[C@H](Oc1nc(-c2onc3c2CCC[C@@]32CCCc3sc(N)c(C#N)c32)nc2c1N(C)C(=O)CN2[C@@H]1CCOC1)[C@@H]1CCCN1C` [I-37], the solubility at 24 h came to 113 µg/mL (≈ 175 µM).

In the case of `CO[C@@H]1C[C@@H]([C@H](C)Oc2nc(-c3onc4c3CCC[C@@]43CCCc4sc(N)c(C#N)c43)nc3c2n(C)c(=O)n3[C@@H]2CCCOC2)N(C)C1` [I-14], the solubility at 24 h is under 1 µg/mL.

The target in the next data set is KRAS (G12D)::SOS1 protein-protein interaction (Homo sapiens (Human), UniProt P01116, G12D). In words: KRAS::SOS1 AlphaScreen binding assay (KRAS G12D). Particulars: GDP. The source says:
This assay can be used to examine the potency with which compounds according to the invention binding to (mutated) KRAS inhibit the protein-protein interaction between SOS1 and (mutated) KRAS e.g. KRAS G12C, KRAS G12D. […] Low IC50 values in this assay setting are indicative of strong inhibition of protein-protein interaction between SOS1 and KRAS:
These assays measure the inhibitory effect of compounds on KRAS mutant protein-protein interactions using the Alpha Screen technology by Perkin Elmer.
The following (mutant) enzyme forms of KRAS and interacting proteins are used in these assays at the given concentrations:
KRAS (G12D) 1-169, N-terminal 6His-tag, C-terminal avi-tag (Xtal BioStructures, Inc.); final assay concentration 10 nM and SOS1 564-1049, N-terminal 229 GST-tag, TEV cleavage site (Viva Biotech Ltd); final assay concentration 5 nM;
Test compounds dissolved in DMSO are dispensed onto assay plates (Proxiplate 384 PLUS, white, PerkinElmer; 6008289) using an Access Labcyte Workstation with the Labcyte Echo 55x. For the chosen highest assay concentration of 100 μM, 150 nL of compound solution are transferred from a 10 mM DMSO compound stock solution. A series of eleven fivefold dilutions per compound are transferred to the assay plate, compound dilutions are tested in duplicates. DMSO are added as backfill to a total volume of 150 nL.
The assays run on a fully automated robotic system in a darkened room below 100 Lux. To 150 nl of compound dilution 10 μl of a mix including KRAS mutant protein, SOS1 (final assay concentrations see above) and GDP nucleotide (Sigma G7127; final assay concentration 10 μM) in assay buffer (1×PBS, 0.1% BSA, 0.05% Tween 20) are added into columns 1-24.
After 30 minutes incubation time 5 μl of Alpha Screen bead mix in assay buffer are added into columns 1-23. Bead mix consists of AlphaLISA Glutathione Acceptor Beads (PerkinElmer, Cat No AL109) and AlphaScreen Streptavidin Donor Beads (PerkinElmer Cat No 6760002) in assay buffer at a final assay concentration of 10 μg/mL each.
Plates are kept at room temperature in a darkened incubator. After an additional 60 minutes incubation time the signal is measured in a PerkinElmer Envision HTS Multilabel Reader using the AlphaScreen specs from PerkinElmer.
Each plate contains up to 16 wells of a negative control depending on the dilution procedure (platewise or serial) (DMSO instead of test compound; with KRAS mutant::SOS1 GOP mix and bead mix; column 23) and 16 wells of a positive control (DMSO instead of test compound; with KRAS mutant::SOS1 GOP mix w/o bead mix; column 24).
As internal control known inhibitors of KRAS mutant::SOS1 interaction can be measured on each compound plate.
IC50 values are calculated and analyzed with Boehringer Ingelheim's MEGALAB C50 application using a 4 parametric logistic model.
Tables of example compounds disclosed herein contain IC50 values determined using the above assays (see Table 43).
For the compound `C[C@H](Oc1nc(-c2onc3c2CCC[C@@]32CCCc3sc(N)c(C#N)c32)nc2c1n(C)c(=O)n2[C@@]12COC[C@@H]1C2)[C@@H]1CCCN1C` [I-29], the IC50 was 1 nM. That is a single-digit nanomolar value.

Consider `C[C@H](Oc1nc(-c2onc3c2CCC[C@@]32CCCc3sc(N)c(C#N)c32)nc2c1N(C)C(=O)CN2[C@@H]1CCOC1)[C@@H]1CCCN1C` [I-37], for which the IC50 amounted to 8 nM.

As for `CO[C@@H]1C[C@@H]([C@H](C)Oc2nc(-c3onc4c3CCC[C@@]43CCCc4sc(N)c(C#N)c43)nc3c2n(C)c(=O)n3[C@@H]2CCCOC2)N(C)C1` [I-14], the 50% inhibitory concentration (IC50) came out at 1 nM. This IC50 lies about 8-fold lower than the previous one.

The subject of the next data set is LOVO cells. The experiment in a line: LOVO CTG proliferation assay (120 h) (CRC, G13D). The data set is classed as cell-based. The following applies: Homo sapiens. As to the method:
(§1) LOVO cells (ATCC No. CCL-229) are dispensed into black 384-well plates, flat and clear bottom (Greiner, PNr. 781091) at a density of 1000 cells per well in 60 μl DMEM (Sigma D6429)+10% FCS (fetal calf serum, HyClone, SH30084.03). Cells are incubated overnight at 37° C. in a humidified tissue culture incubator at 5% CO2. Compounds (10 mM stock in DMSO) are added at logarithmic dose series using the ECHO acoustic liquid handler system (Beckman Coulter), normalizing for added DMSO and including DMSO controls. All compound treatments are performed in technical duplicates. For the TO time point measurement, untreated cells are analyzed at the time of compound addition. Plates are incubated for 120 h, and cell viability is measured using CellTiter-Glo luminescent cell viability reagent (Promega product code G7570). Viability (stated as percent of control) is defined as relative luminescence units RLU of each well divided by the RLU of cells in DMSO controls. IC50 values are determined from viability measurements by non-linear regression using a four-parameter model.
(§2) IC50 values of representative compounds according to the invention measured with these assays in the indicated cell lines are presented in Table 46.
In turn, `C[C@H](Oc1nc(-c2onc3c2CCC[C@@]32CCCc3sc(N)c(C#N)c32)nc2c1n(C)c(=O)n2[C@@]12COC[C@@H]1C2)[C@@H]1CCCN1C` [I-29] came in with an IC50 of 4 nM.

`C[C@H](Oc1nc(-c2onc3c2CCC[C@@]32CCCc3sc(N)c(C#N)c32)nc2c1N(C)C(=O)CN2[C@@H]1CCOC1)[C@@H]1CCCN1C` [I-37] had an IC50 of 31 nM. This IC50 is about 7.8-fold higher than that of the compound before.

`CO[C@@H]1C[C@@H]([C@H](C)Oc2nc(-c3onc4c3CCC[C@@]43CCCc4sc(N)c(C#N)c43)nc3c2n(C)c(=O)n3[C@@H]2CCCOC2)N(C)C1` [I-14] had an IC50 of 6 nM.

A further data set concerns NCI-H358 cells. In words: NCI-H358 CTG proliferation assay (120 h) (NSCLC, G12C). It is filed as cell-based. The following applies: Homo sapiens. Here is the method:
as §1, with “NCI-H358” for “LOVO”, “CRL-5807)” for “CCL-229)”, “200” for “1000”, “RPMI-1640 ATCC-Formulation (Gibco #A10491)+10%” for “DMEM (Sigma D6429)+10%”, “serum).” for “serum, HyClone, SH30084.03).”
as §2
`C[C@H](Oc1nc(-c2onc3c2CCC[C@@]32CCCc3sc(N)c(C#N)c32)nc2c1n(C)c(=O)n2[C@@]12COC[C@@H]1C2)[C@@H]1CCCN1C` [I-29] returned an IC50 of 2 nM.

In the case of `C[C@H](Oc1nc(-c2onc3c2CCC[C@@]32CCCc3sc(N)c(C#N)c32)nc2c1N(C)C(=O)CN2[C@@H]1CCOC1)[C@@H]1CCCN1C` [I-37], inhibition was half-maximal at 232 nM (IC50).

`CO[C@@H]1C[C@@H]([C@H](C)Oc2nc(-c3onc4c3CCC[C@@]43CCCc4sc(N)c(C#N)c43)nc3c2n(C)c(=O)n3[C@@H]2CCCOC2)N(C)C1` [I-14] showed an IC50 of 9 nM. This IC50 is about 26-fold lower than that of the compound before.
